Data set [1] deals with OVCAR5 cells. Nature of the data set: Cell viability and synergy with cisplatin. The class given is cell-based. Conditions: at 1 μM and 10 μM, 72 h.
In data set [2] the test system is PEO1 cells. Nature of the data set: Cell viability and synergy with cisplatin. The class given is cell-based. Conditions: at 1 μM and 10 μM, 72 h.

For `O=c1c2cnn(C3COC3)c2nc(SCc2cccc(F)c2)n1-c1ccccc1` [Compound 12g, 6-((3-Fluorobenzyl)thio)-1-(oxetan-3-yl)-5-phenyl-1H-pyrazolo[3,4-d]pyrimidin-4(5H)-one], the “Cytotoxicity of compound alone, OVCAR5” value in data set [1] was “did not show cytotoxicity”. In addition, the “Cytotoxicity of compound alone, PEO1” value in data set [2] was “did not show cytotoxicity”.
Take `O=c1c2cn(C3COC3)nc2nc(SCc2cccc(F)c2)n1-c1ccccc1` [Compound 13g, 6-((3-Fluorobenzyl)thio)-2-(oxetan-3-yl)-5-phenyl-2H-pyrazolo[3,4-d]pyrimidin-4(5H)-one]: in data set [1], the “Cytotoxicity of compound alone, OVCAR5” value is “did not show cytotoxicity”. Further, the “Cytotoxicity of compound alone, PEO1” value in data set [2] is reported as “did not show cytotoxicity”.

Values taken from article PMC6477540 (Journal of medicinal chemistry, 2018).
